Measured values: US20110311651A1, “CA[…] THE TREATMENT OF OCULAR CANCER” (priority 2008, published 2011)
“Also recorded” adds a separate entry of the source.

What was measured:
[1] = test system: RB355 cells; test: Cytotoxicity assay for dose response in 384-well plates (Alamar Blue), RB355; format: cell-based, human
Description: (§1) Cytotoxicity assay for dose response in 384-well microtiter plates. Dose response studies were performed in 384-well microtiter plates (#3712, Corning Inc., Corning, N.Y.) according to the following protocol: cells were added in 45 μL medium to the screening plates using Flexdrop. After 72 h incubation was added 5 μL Alamar Blue using Flexdrop. The cells were then incubated for another 24 h, and the fluorescence intensity was read on LEADseeker™ Multimodality Imaging System as previously described. To calculate the IC50 for each compound toward each cell line, the dose response was assessed in duplicate and using 12 point doubling dilutions with 100 μM compound concentration as the upper limit. The dose response curve for each set of data was fitted separately, and the two IC50 values obtained were averaged.
To explore the structure activity relationship (SAR) within this chemical class a collection of 35 cardenolides and derivatives was constituted. The dose response for each compound toward the ocular cancer cell lines Y79, RB355, WERI-Rb-1 and C918 was then assessed.
Compared potency of the cardenolide ouabain with known agents in cell models of retinoblastoma. The potency of a representative of the cardenolide scaffold was compared to known effective agents against retinoblastoma. […]

[2] = test system: Y79 cells; test: Cytotoxicity assay for dose response in 384-well plates (Alamar Blue), Y79; format: cell-based, human
Description: as §1
Compared potency of the cardenolide ouabain with known agents in cell models of retinoblastoma. The potency of a representative of the cardenolide scaffold was compared to known effective agents against retinoblastoma. Namely, the dose response of the drug ouabain was tested with the human retinoblastoma cell lines Y79 and RB355, and its potency was compared to vincristine, etoposide, carboplatin, cisplatin, nutlin-3 and calcitriol. […] The activity of vincristine toward Y79 cells reached a plateau at 50% inhibition, which prevented the IC50 for this compound from being calculated.

[3] = test system: Y79 cells; test: Pilot study, live staining of treated cells with the dye Yo-Pro; format: cell-based, human; conditions: concentrations higher than 0.5 μM
Description: Compared effect of ouabain and clinical agents on apoptosis of Y79 cells. To determine whether the anti-proliferative effects of the drug ouabain was mediated by induction of apoptosis, immunostaining of activated Caspase-3 in Y79 cells treated with cardenolides or known agents for retinoblastoma for 72 h (green channel) was performed; treated cells were also stained with Hoechst to image the nuclei (blue channel) (FIG. 6). The drug concentrations used in this experiment were previously determined according to a pilot study where treated Y79 cells were live-stained with the dye Yo-Pro, which stains apoptic cells (Idziorek et al., J. Immunol. Methods 1995, 185, 249-258). Based on this study, 72 h was identified as the optimum incubation time and drug concentrations were selected that maximized the number of apoptotic cells (data not shown). Baseline Caspase-3 activation was evaluated with control Y79 cells treated with 1% DMSO (v/v) (FIG. 6A).

[4] = test system: Y79 cells; test: Apoptosis assay, immunofluorescence detection of activated Caspase-3; format: cell-based, human; conditions: 0.5 μM, 72 h, 1% DMSO
Description: Apoptosis assay. Y79 cells seeded in culture medium in a 24-well plate were treated with either vincristine, etoposide, or ouabain at various concentrations in 1% DMSO (v/v) or with 1% DMSO (v/v) alone as a carrier control for 48 h or 72 h. After a wash in PBS, cells were fixed in solution in […] in PBS for 10 minutes. After a wash in PBS, cells for each condition were dried on a glass slide and washed once with water.
The immunofluorescence detection of cleaved Caspase-3 was performed at the Memorial Sloan-Kettering Cancer Center Molecular Cytology Core Facility using a Discovery XT processor (Ventana Medical Systems, Tucson, Ariz.). A rabbit polyclonal Cleaved Caspase 3 (Asp 175) antibody (#9661 L, Cell Signaling, Danvers, Mass.) was used at a concentration of 0.1 μg/ml. […] Automated fluorescence imaging of the green channel (activated Caspase-3) and blue channel (nuclei) was performed using an IN Cell Analyzer 1000 (GE Healthcare).
Compared effect of ouabain and clinical agents on apoptosis of Y79 cells. […] The drug concentrations used in this experiment were previously determined according to a pilot study where treated Y79 cells were live-stained with the dye Yo-Pro, which stains apoptic cells (Idziorek et al., J. Immunol. Methods 1995, 185, 249-258). […] Baseline Caspase-3 activation was evaluated with control Y79 cells treated with 1% DMSO (v/v) (FIG. 6A).

[5] = Body weight and signs of toxicity in the xenograft study; format: in vivo, mouse; conditions: throughout the treatment period
Description: In vivo studies. Subcutaneous xenograft experiments were performed at the Memorial Sloan-Kettering Cancer Center Antitumor Assessment Core Facility. Y79LUC cells (10E6) embedded in matrigel (BD Biosciences, San Jose, Calif.) were injected subcutaneously in the right flank of 8-weeks old ICR/SCID male mice. Treatment started when the tumors reached approximately 250 mm^3. The mice were randomized into three groups and two mice per group were treated with either 10% DMSO (v/v) (control group), 1.5 mg/kg ouabain or 15 mg/kg ouabain. Treatment was performed by continuous subcutaneous infusion using osmotic minipumps (#1007D, Alzet, Cupertino, Calif.). Tumor size was measured externally two times a week with a caliper. Body weight of each mouse was monitored as well as other signs of toxicity throughout the treatment period. Bioluminescent imaging of the tumors was performed once a week and prior to sacrifice as follows: mice were anesthetized by isofluorane inhalation and injected with D-luciferin at 50 mg/Kg (Xenogen) intraperitoneally; photonic emission was measured with the In Vivo Imaging System (IVIS 200, Xenogen) with a collection time of 5 seconds.
Assessment of the in vivo efficacy of ouabain in a xenograft model of retinoblastoma. The therapeutic effect of the drug ouabain in a mouse xenograft model of retinoblastoma was also investigated. […]

## N.N.O=C([O-])C1(C(=O)[O-])CCC1.[Pt+2] [Carboplatin, carboplatin]
[1]
  activity toward RB355 cells below 100 μM: neither caboplatin or calcitriol had any significant activity
[2]
  activity toward Y79 cells below 100 μM: did not demonstrate any significant activity

## C=C1/C(=C\C=C2/CCC[C@]3(C)[C@@H]([C@H](C)CCCC(C)(C)O)CC[C@@H]23)C[C@@H](O)C[C@@H]1O [calcitriol]
[1]
  activity toward RB355 cells below 100 μM: neither caboplatin or calcitriol had any significant activity
[2]
  activity toward Y79 cells below 100 μM: did not demonstrate any significant activity

## N.N.[Cl][Pt][Cl] [cisplatin]
[2]
  activity toward Y79 cells below 100 μM: did not demonstrate any significant activity

## C[C@@H]1O[C@@H](O[C@H]2C[C@@H](O)[C@]3(CO)[C@H]4[C@H](O)C[C@]5(C)[C@@H](C6=CC(=O)OC6)CC[C@]5(O)[C@@H]4CC[C@]3(O)C2)[C@H](O)[C@H](O)[C@H]1O [ouabain]
[3]
  effect on Y79 cells in the Yo-Pro pilot study: erradicated Y79 cells
[4]
  apoptosis (activated Caspase-3) compared to baseline: still induced significant apoptosis
[5]; 15 mg/kg
  toxicity: did not induce any significant toxicity; also recorded: no signs of toxicity were observed
[5]; 1.5 and 15 mg/kg
  average body weight of treated versus control animals: did not differ significantly
